The results in this text go back to PubChem BioAssay AID328 (DTP/NCI, 2004).

Structures are written as SMILES. Several values for one entry are separate records, joined by “and”; a condition that tells them apart may be missing. Identical values can stand only once. Toxic doses and inconclusive results are not listed.

The test system of this test is BDF1 mice, P388 leukemia ip, median survival T/C. The experiment in a line: NCI In Vivo Anticancer Drug Screen. Data for tumor model P388 Leukemia (intraperitoneal) in B6D2F1 (BDF1) mice. The conditions noted are these: endpoint: median survival time, higher = longer survival. An outline of the steps:
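Mice carrying the transplantable tumour receive compound or vehicle. Survival is followed in each arm, and the treated measure is divided by the vehicle measure.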

The mark [1] stands for this setting: dose: 50.0 mg/kg/injection, schedule: Q01DX009 (ip), vehicle: saline.
The mark [2] stands for this setting: dose: 100.0 mg/kg/injection, schedule: Q01DX009 (ip), vehicle: saline.
Where [3] appears, read: dose: 100.0 mg/kg/injection, schedule: Q04DX003 (ip), vehicle: saline.
The mark [4] stands for this setting: dose: 200.0 mg/kg/injection, schedule: Q01DX009 (ip), vehicle: saline.
Setting [5] is: dose: 50.0 mg/kg/injection, schedule: Q01DX009 (ip), vehicle: saline with Tween-80.
The mark [6] stands for this setting: dose: 25.0 mg/kg/injection, schedule: Q01DX009 (ip), vehicle: saline with Tween-80.
[7] abbreviates: dose: 100.0 mg/kg/injection, schedule: Q01DX009 (ip), vehicle: saline with Tween-80.
Setting [8] is: dose: 100.0 mg/kg/injection, schedule: Q04DX003 (ip), vehicle: saline with Tween-80.

Consider `C[N+](C)(C)CCCC[N+](C)(C)C`, for which the T/C by setting is: (dose: 25.0 mg/kg/injection, schedule: Q01DX009 (ip), vehicle: saline) 93 % of control; under setting [1], 91 % of control; (dose: 50.0 mg/kg/injection, schedule: Q04DX003 (ip), vehicle: saline) 103 % of control; under setting [2], 87 % of control; under setting [3], 103 % of control; under setting [4], 89 % of control and 93 % of control. The T/C is 100 % of control (dose: 200.0 mg/kg/injection, schedule: Q04DX003 (ip), vehicle: saline); 93 % of control and 96 % of control (dose: 300.0 mg/kg/injection, schedule: Q01DX009 (ip), vehicle: saline).

Take `O=NN(CCCl)C(=O)Nc1ccc2c3c(cccc13)-c1ccccc1-2`: the T/C by setting is: (dose: 50.0 mg/kg/injection, schedule: Q01DX009 (ip), vehicle: Klucel (hydroxypropylcellulose) (HPC)) 156 % of control and 157 % of control; (dose: 100.0 mg/kg/injection, schedule: Q01DX009 (ip), vehicle: Klucel (hydroxypropylcellulose) (HPC)) 156 % of control and 157 % of control; (dose: 200.0 mg/kg/injection, schedule: Q01DX009 (ip), vehicle: Klucel (hydroxypropylcellulose) (HPC)) 161 % of control and 170 % of control; (dose: 400.0 mg/kg/injection, schedule: Q01DX009 (ip), vehicle: Klucel (hydroxypropylcellulose) (HPC)) 93 % of control.

As to `CC1(C)N=C(N)N=C(N)N1c1cccc(OCCCOc2ccccc2)c1`, for the setting “dose: 50.0 mg/kg/injection, schedule: Q01DX001 (ip), vehicle: Klucel (hydroxypropylcellulose) (HPC)”, the T/C was 106 % of control.

In the case of `CCCCCCCC(=O)Nc1cc(C(F)(F)F)ccc1Cl`, the T/C reads like this: (dose: 100.0 mg/kg/injection, schedule: Q04DX003 (ip), vehicle: other) 100 % of control; (dose: 200.0 mg/kg/injection, schedule: Q04DX003 (ip), vehicle: other) 109 % of control; (dose: 400.0 mg/kg/injection, schedule: Q04DX003 (ip), vehicle: other) 104 % of control.

Take `CCCCC[C@H](O)/C=C/[C@H]1[C@H](O)CC(=O)[C@@H]1C/C=C\CCCC(=O)O`: the T/C is 122 % of control (dose: 50.0 mg/kg/injection, schedule: Q04DX002 (ip), vehicle: Klucel (hydroxypropylcellulose) (HPC)); 105 % of control (dose: 100.0 mg/kg/injection, schedule: Q04DX002 (ip), vehicle: Klucel (hydroxypropylcellulose) (HPC)); 114 % of control (dose: 200.0 mg/kg/injection, schedule: Q04DX002 (ip), vehicle: Klucel (hydroxypropylcellulose) (HPC)); 114 % of control (dose: 400.0 mg/kg/injection, schedule: Q04DX002 (ip), vehicle: Klucel (hydroxypropylcellulose) (HPC)).

In the case of `CCCCCCCC(=O)Oc1c(Cl)c(Cl)c(C#N)c(Cl)c1C#N`, the T/C under setting [5] is 119 % of control.

On to `Cn1c([N+](=O)[O-])cnc1CSC(=S)N1CCN(C(=S)SCc2ncc([N+](=O)[O-])n2C)CC1`, for which the T/C by setting is: under setting [6], 106 % of control; under setting [5], 103 % of control; under setting [7], 103 % of control.

Turning to `COC(=O)N1CCC2OC2C1` (configuration not stated), the T/C was 99 % of control under setting [1], 107 % of control under setting [2] and 100 % of control under setting [4].

In the case of `CN(CCCOS(C)(=O)=O)CCCOS(C)(=O)=O`, the T/C runs as follows: (dose: 2.2 mg/kg/injection, schedule: Q04DX003 (ip), vehicle: saline) 104 % of control; (dose: 3.4 mg/kg/injection, schedule: Q04DX003 (ip), vehicle: saline) 113 % of control; (dose: 5.0 mg/kg/injection, schedule: Q01DX010 (ip), vehicle: saline) 150 % of control; (dose: 10.0 mg/kg/injection, schedule: Q01DX010 (ip), vehicle: saline) 196 % of control; (dose: 19.0 mg/kg/injection, schedule: Q04DX003 (ip), vehicle: saline) 172 % of control; under setting [6], 263 % of control. Moreover, the T/C (dose: 29.0 mg/kg/injection, schedule: Q04DX003 (ip), vehicle: saline with Tween-80) is 209 % of control; the T/C (dose: 40.0 mg/kg/injection, schedule: Q01DX010 (ip), vehicle: saline) was 230 % of control; the T/C (dose: 66.0 mg/kg/injection, schedule: Q04DX003 (ip), vehicle: saline with Tween-80) is 300 % of control; the T/C (dose: 80.0 mg/kg/injection, schedule: Q01DX010 (ip), vehicle: saline) is 107 % of control; the T/C under setting [8] is 300 % of control; the T/C under setting [3] was 118 % of control. The T/C by setting is: (dose: 150.0 mg/kg/injection, schedule: Q04DX003 (ip), vehicle: saline with Tween-80) 100 % of control; (dose: 150.0 mg/kg/injection, schedule: Q04DX003 (ip), vehicle: saline) 254 % of control.

As to `Nc1cc2nnc(-c3ccccc3)c(-c3ccccc3)n2n1`, the T/C by setting is: (dose: 100.0 mg/kg/injection, schedule: Q04DX002 (ip), vehicle: saline with Tween-80) 89 % of control; (dose: 400.0 mg/kg/injection, schedule: Q04DX002 (ip), vehicle: saline with Tween-80) 86 % of control.

On to `CC(C(=O)O)=C(c1ccccc1)c1ccccc1`, for which the T/C is 100 % of control (dose: 100.0 mg/kg/injection, schedule: Q01DX001 (ip), vehicle: saline with Tween-80); 100 % of control (dose: 200.0 mg/kg/injection, schedule: Q01DX001 (ip), vehicle: saline with Tween-80); 100 % of control (dose: 400.0 mg/kg/injection, schedule: Q01DX001 (ip), vehicle: saline with Tween-80).

Turning to `CC(C)=CCC/C(C)=C/CNc1ncnc2nc[nH]c12`, the T/C under setting [8] was 100 % of control; the T/C (dose: 200.0 mg/kg/injection, schedule: Q04DX003 (ip), vehicle: saline with Tween-80) is 90 % of control; the T/C (dose: 400.0 mg/kg/injection, schedule: Q04DX003 (ip), vehicle: saline with Tween-80) is 109 % of control and 111 % of control.

In the case of `CCOC(=O)C(Cc1ccc(N(CCCl)CCCl)cc1)NC(=O)C(N)CO` (configuration not stated), the T/C by setting is: (dose: 5.0 mg/kg/injection, schedule: Q04DX003 (ip), vehicle: water) 157 % of control; (dose: 10.0 mg/kg/injection, schedule: Q04DX003 (ip), vehicle: water) 263 % of control; (dose: 20.0 mg/kg/injection, schedule: Q04DX003 (ip), vehicle: water) 263 % of control; (dose: 40.0 mg/kg/injection, schedule: Q04DX003 (ip), vehicle: water) 105 % of control.

As for `C[N+]1(C)N=C([O-])N(CCCCCCN2C(=O)[N+](C)(C)N=C2[O-])C1=O`, the T/C runs as follows: (dose: 100.0 mg/kg/injection, schedule: Q04DX003 (ip), vehicle: suspension in saline) 94 % of control; (dose: 200.0 mg/kg/injection, schedule: Q04DX003 (ip), vehicle: suspension in saline) 96 % of control; (dose: 400.0 mg/kg/injection, schedule: Q04DX003 (ip), vehicle: suspension in saline) 98 % of control.

Turning to `C=CCCCCCCCCC(=O)NC[n+]1cccc(O)c1`, the T/C runs as follows: under setting [6], 110 % of control; under setting [5], 100 % of control; under setting [7], 100 % of control.

With `Clc1cccc(N=c2cc3oc4ccccc4nc-3cc2Nc2cccc(Cl)c2)c1`, the T/C by setting is: (dose: 12.5 mg/kg/injection, schedule: Q01DX009 (ip), vehicle: saline with Tween-80) 96 % of control; under setting [6], 99 % of control; under setting [5], 93 % of control.

`COc1ccc2c(c1)CCC1C2=CC(=O)/C1=C\[O-].COc1ccc2c(c1)CCC1C2=CC(=O)/C1=C\[O-].[Cu+2]` (configuration not stated): the T/C runs as follows: (dose: 12.5 mg/kg/injection, schedule: Q04DX003 (ip), vehicle: saline with Tween-80) 113 % of control; (dose: 25.0 mg/kg/injection, schedule: Q04DX003 (ip), vehicle: saline with Tween-80) 109 % of control.

For the molecule `CS(=O)(=O)CC(O)(c1ccccc1)c1ccccn1` (configuration not stated), the T/C is, setting by setting: under setting [5], 90 % of control; under setting [7], 89 % of control; (dose: 200.0 mg/kg/injection, schedule: Q01DX009 (ip), vehicle: saline with Tween-80) 89 % of control.

For `COc1cccc2c1C(=O)c1c(O)c3c(c(O)c1C2=O)CC(O)(C(=O)C(C)C)CC3OC1CC(N)C(O)C(C)O1` (configuration not stated), the T/C runs as follows: (dose: 9.4 mg/kg/injection, schedule: Q04DX003 (ip), vehicle: water) 107 % of control; (dose: 18.8 mg/kg/injection, schedule: Q04DX003 (ip), vehicle: water) 107 % of control; (dose: 37.5 mg/kg/injection, schedule: Q04DX003 (ip), vehicle: water) 116 % of control; (dose: 75.0 mg/kg/injection, schedule: Q04DX003 (ip), vehicle: water) 90 % of control.

Take `Nc1nc2c(c(=O)[nH]1)NC(CCNc1ccc(C(=O)O)cc1)CN2` (configuration not stated): the T/C under setting [8] was 86 % of control.
